Assay results published in paper PMC9317316, “Synthesis and Evaluation of Some New 4H-Pyran Derivatives as Antioxidant, Antibacterial and Anti-HCT-116 Cells of CRC, with Molecular Docking, Antiproliferative, Apoptotic and ADME Investigations” (Pharmaceuticals, 2022).
“And” between values parts separate entries of the source, which are not always exact repeats. Identical values can stand only once. Like-named read-outs stand apart in the source and are kept apart here.

What was measured:
HCT-116 cells = assay: Cell viability (cytotoxicity, LDH release) assay; type: cell-based; conditions: Homo sapiens, 24 h; for viability at 100 µg/mL: read-out: percent of viable cells
How it was run: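 Human colorectal HCT-116 cells exposed to compounds at 10, 25, 50 and 100 µg/mL in DMEM with 10% FBS for 24 h at 37 °C. LDH released into the supernatant measured at 600 nm; viability given as % of untreated control OD (mean ± SD, n = 3), 0.1% Triton X-100 as positive control.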

[1] = DPPH radical scavenging assay; conditions: for IC50: 0.03 to 1 mg/mL, 1 h, mean ± SD, triplicate, read-out: IC50 (mM) for DPPH Scavenging Potency
How it was run: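 Ethanolic DPPH mixed with samples at 0.03 to 1 mg/mL, kept 1 h at room temperature in darkness, then absorbance read at 519 nm against compound-free control. Scavenging percentage computed as (1 − Acompound/Acontrol) × 100; IC50 interpolated from scavenging-versus-concentration plot.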

[2] = tested on: CDK2 protein in HCT-116 cells; assay: Quantitative determination of CDK2 concentration in HCT-116 cell lysates (Human CDK2 ELISA Kit); type: cell-based; conditions: for downregulation of CDK2 protein expression, fold: as compared to the negative control; for concentration of CDK2 in lysate of treated HCT-116 cells: negative control 7.466 ng/mL
Experimental: First, the commercial Human CDK2 ELISA Kit was used to estimate concentrations of the protein in the lysate of HCT-116 cells treated with 4d and 4k. The results were compared with the positive (cells treated with the reference CDK inhibitor, BMS-265246) and negative control experiments.
The in vitro quantitative measurement of concentration of CDK2 in lysates of HCT-116 cells was carried out using a commercial Human CDK2 ELISA Kit (cat. no.: LS-F22176; LifeSpan Biosciences Inc., Seattle, WA, USA) in the presence or absence of the studied compounds (4d and 4k), following the manufacturer’s instructions. Briefly, standards, blanks or samples were first incubated in the corresponding wells for 90 min at 37 °C. Then, biotinylated detection antibody was added to each well and the plate was incubated for 1 h at 37 °C followed by the addition of an Avidin–Horseradish Peroxidase (HRP) conjugate which binds to the biotin. After incubation of the mixture for 30 min at 37 °C, unbound Avidin–HRP conjugate was washed away and a TMB substrate was then added which reacts with the HRP enzyme, resulting in color development. After that, the reaction was stopped using a sulfuric acid stop solution to terminate the color-development reaction and the optical density of each well was measured using a microplate reader at 450 nm. BMS-265246 was used as the standard drug for inhibition of CDK2. All measurements were performed in triplicate.

[3] = read-out: Mean IC50 (µM) of cytotoxicity
[4] = read-out: Mean IC50 (µg/mL) of cytotoxicity

| SMILES | viability at 100 µg/mL (HCT-116 cells) [%] | IC50 (HCT-116 cells; [3]) [µM] | IC50 (HCT-116 cells; [4]) [µg/mL] | IC50 [1] [mM] | DPPH Radical Scavenging Effenciency (%) at 1 mg/mL [1] | downregulation of CDK2 protein expression, fold [2] [fold] | concentration of CDK2 in lysate of treated HCT-116 cells [2] [ng/mL] |
| --- | --- | --- | --- | --- | --- | --- | --- |
| COc1cc(C2C(C#N)=C(N)OC(C)=C2C(=O)OCc2ccccc2)cc(OC)c1OC (centres unmarked) [4d, 6-Amino-5-cyano-2-methyl-4-(3,4,5-trimethoxy-phenyl)-4H-pyran-3-carboxylic acid benzyl ester] | 11 to 32.5 | 75.1 ± 5.09 | 32.8 ± 2.22 | 0.504 ± 0.032 | 65.25% and 65.25 ± 1.77% | 1.9 | 4.634 |
| CC1=C(C(=O)OCc2ccccc2)C(c2ccc(C#N)cc2)C(C#N)=C(N)O1 (centres unmarked) [4k, 6-Amino-5-cyano-4-(4-cyano-phenyl)-2-methyl-4H-pyran-3-carboxylic acid benzyl ester] | 11 to 32.5 | 85.9 ± 7.61 | 31.9 ± 2.83 | 1.05 ± 0.075 | 40.55 ± 2.19% | 1.6 | 3.932 |
